The values below come from patent publication US5705687A, “Neurotropic drug and method for preparation of same” (priority 1993, dated 1998).

Values joined by “and” are separate entries in the source; they are usually repeats but may differ in a detail not shown here. Equal values may be shown once. Where a name gives a salt, the structure may show the parent alone. Read-outs that look alike come from different tables or passages of the source.

The test system of data set [1] is mice. Put plainly: Soporific action of barbital sodium.
The test system of data set [2] is central nervous system. Put plainly: Neuropharmacological screening, overall findings. In kind it is in vivo, mice. Conditions: examined dosage range. The protocol: (§1) The myorelaxing effect of the new compounds was tested by the method of the "rotating rod"(Dunham N. W., Miga T. S., A note on a simplex apparatus for detecting neurological deficit in rat and mice, J. Am. Pharm. Ass., 1957, vol. 46, No. 3, pp. 208-209), which allows one to record any abnormalities in coordination and balance, as well as ataxia. The mice in the laboratory tests were placed on a horizontal rod, 2 cm in diameter, rotating at a speed of 5 revolutions per minute. The object was to register the number of mice which were able to maintain equilibrium on the rod for two minutes. Any presence of a myorelaxing component was considered to be a side effect of the substance being studied.

Data set [3] in a line: Solubility and hygroscopicity. The class given is physicochemical.
The test system of data set [4] is mice. Put plainly: Hemic hypoxia (sodium nitrite), lifespan. Particulars: 400 mg/kg i.p., control. The class given is in vivo. The protocol: (§2) The antihypoxic properties of the new compounds were tested in the models of hypoxic normobaric, hemic and histotoxic hypoxia. The hypoxic (hypercapnic) normobaric hypoxia was induced by placing the mice in hermetically sealed transparent boxes, subdivided into compartments, 80 cm^3 each. The animals were observed until all respiratory movements ceased. The hemic hypoxia was induced by the intraperitoneal administration of sodium nitrite in a dose of 400 mg/kg. The hystotoxic hypoxia was induced by the intraperitoneal administration of sodium nitroprussiate, in a dose of a 20 mg/kg dosage.

Data set [5] concerns mice. Put plainly: Soporific action of hexobarbital.
For data set [6], the system named is mice. Put plainly: Spontaneous motor activity (SMA), 40-channel automatic motor meter. Conditions: for Average SMA, M ± m: control 524.0 ± 99.2; for Relative change in activity (%): control = 100.
Data set [7] has as its system mice. Put plainly: Conditioned reaction of passive avoidance (CPRA), amnesia by electric shock. In kind it is in vivo. Conditions: 250 to 500 mg/kg; earlier tests. An excerpt:
The effect produced by the new substance on the processes of the central nervous system was examined on the model of one-time training of mice, of conditioned reaction of passive avoidance (CPRA), where the amnesic effect was produced by electric shock. During the tests, a two-section chamber was used to condition a certain reflex to the lit and darkened sections. First, for two minutes, the amount of time was registered, that a mouse spent in the lit section before entering the darkened section. Then, while in the darkened section, the animal would receive a single electric shock through the electrode floor (training). The training was immediately followed by an electric shock (50 Hz, 0.2 see). […] The substance was intraperitoneally administered 40 min. prior to the start of the training, the control group received a physiological solution. […] The anti-amnesic properties of the new compound are represented by an increase in the latent period before and after the training. (Δt)

Data set [8] can be described thus: Acute toxicity in mice (Litchfield-Wilcockson). In kind it is in vivo, white crossbred mice. Conditions: mouse, in vivo.
The conditions of data set [9]: cited from earlier work.
The test system of data set [10] is mice. Put plainly: Histotoxic hypoxia (sodium nitroprussiate), lifespan. In kind it is in vivo. Conditions: 250, 500 and 1000 mg/kg (two values for three doses (so in the source)). The protocol:
as §2

The conditions of data set [11]: background statement on the known drug; cited from earlier work.
Data set [12] relates to mice. Put plainly: Orientation reflexes: test of ascent onto an inclined net.
The test system of data set [13] is mice. Put plainly: Rotating rod: myorelaxation and movement coordination. In kind it is in vivo, white crossbred mice. The protocol:
as §1

For the molecule `CCC1(CC)C(=O)NC(=O)NC1=O` [Barbitol sodium, barbital sodium, reference compound], the “Lateral position (min), barbiturate alone” value in data set [1] (250 mg/kg i.p., control of each experiment) is 31.8 ± 1.1 min and 34.5 ± 1.4 min and 38.1 ± 1.3 min.
With `CC(C)(CO)C(=O)C(=O)NCCCC(=O)O` [KPA, N-(4-hydroxy-3,3-dimethyl-2-oxo-1-butyryl)γ-aminobutyric acid], the “depressing effect on the animals” value in data set [2] is “no depressing effect”. The “solubility in acetone or chloroform” value in data set [3] (acetone, chloroform) is listed as “not in acetone or chloroform”. The “solubility in water and alcohol” value in data set [3] (water, alcohol) was “readily soluble”.
Regarding `O=N[O-].[Na+]` [Na-nitrite, sodium nitrite, reference compound], the “Average lifespan (sec), hypoxia inducer alone” value in data set [4] was 790.5 ± 21.1 s.
Consider `CN1C(=O)NC(=O)C(C)(C2=CCCCC2)C1=O` (stereo not shown) [hexobarbital, reference compound], for which, in data set [5] (100 mg/kg i.p., control), the “Duration of sleep (min), barbiturate alone” value is 46.3 ± 2.3 min and the “Lateral position (min), barbiturate alone” value amounted to 2.4 ± 0.15 min.
As for `CC(C)(CO)[C@@H](O)C(=O)NCCCC(=O)O` [pantogam, calcium salt of the D-homopantothenic acid, reference compound], in data set [6] (500 mg/kg), the “decrease in number of runs in the motor meter” value amounted to 30%. Moreover, the “Average SMA, M ± m” value worked out at 392.0 ± 307 in data set [6] (500 mg/kg i.p.) and 176.0 ± 116 in [6] (1000 mg/kg i.p., P < 0.05). Besides, the “Relative change in activity (%)” value was 74.8% in data set [6] (500 mg/kg i.p.) and 33.6% in [6] (1000 mg/kg i.p.). The “decrease in motor activity” value in [6] (1000 mg/kg, the maximum tolerable dose) amounted to 70%. In addition, in [6] (SMA test, mice), the “effect on motor activity (in words)” value was “depressing effect on motor activity”. The “anti-amnesic effect (in words)” value in data set [7] is listed as “moderate a anti-amnesic effect”. The “anti-amnesic effect, share of latent period in animals not exposed to the electric shock” value in [7] is reported as 60-75%. Moreover, the LD50 amounted to 1080 mg/kg in data set [8] (intravenous, read-out: DL50 (the source's name)) and 2250 mg/kg in data set [8] (ip, earlier experiments, identical conditions, read-out: DL50 (acute toxicity)). In addition, the MTD in [8] (ip, read-out: maximum tolerance level) came out at 1000 mg/kg. Also, the “increase of soporific effect” value in data set [1] (500 mg/kg, barbital sodium, indicated earlier) amounted to 20%; in data set [5] (500 mg/kg, hexobarbital, indicated earlier), 40%. For the same molecule, in [9] (known drug, high dose), the undesirable side effects entry was “depression and myorelaxation”. For the same molecule, in data set [9] (vs aminalon), the “penetration of the hematoencephalitic barrier compared to aminalon” value is listed as “better penetration”. For the same molecule, the increase in lifespan in data set [10] is 57% and 85%. Besides, in data set [11], the therapeutic index is 3.3. The ED50 in data set [12] (Mus musculus, ip, read-out: average effective dose (DE50)) came out at 680 mg/kg. Further, the “time of maximum strength” value was found to be 60 min in [12] (after administration, orientation reflex) and 30 min in [13] (after injection, rotating rod). The “effect on orientation reflex” value in data set [12] (mice) is listed as “suppressed the orientation reflex”. The “loss of movement coordination (side effect)” value in data set [13] (300 mg/kg and higher) is “loss of movement coordination”. Moreover, the “return of movement coordination and muscle strength (not until)” value in data set [13] (after the start of the experiment) turned out to be 1.5 h.
